From PubChem BioAssay (NCI) come the findings set out here.

Some test systems named below: PC-3 prostate; NCI/ADR-RES ovarian; LOX IMVI melanoma; NCI-H460 lung; MDA-MB-435; CCRF-CEM leukemia; RXF 393 renal; DU-145 prostate; 786-0 renal; MCF7 breast.
Test in all cases: inhibition of tumour cell growth, NCI panel, 48 h

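Where inhibition never reached the appropriate level, the endpoint shown equals the highest concentration tested. Otherwise, values were interpolated linearly from a five-concentration, 48-hour dose response in 96-well plates. At the GI50, growth is halved. At the TGI there is no net growth.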 A value given as a limit tells only on which side of the number the result lay.

Consider `COc1cc2nccc(Oc3ccc(NC(=O)C4(C(=O)Nc5ccc(F)cc5)CC4)cc3)c2cc1Oc1ccc(N)cn1`, for which the GI50 in the assay on PC-3 prostate is 3.12 µM; with NCI/ADR-RES ovarian, 3.83 µM; in the assay on LOX IMVI melanoma, 1.75 µM; with NCI-H460 lung, 3.26 µM; with MDA-MB-435, 1.83 µM; with CCRF-CEM leukemia, 3.95 µM. The GI50 in the assay on RXF 393 renal is 1.72 µM; in the assay on DU-145 prostate, 4.5 µM; with 786-0 renal it was 3.6 µM; in the assay with MCF7 breast, 2.28 µM. Also, the TGI in the assay on PC-3 prostate is over 100 µM; with NCI/ADR-RES ovarian it was over 100 µM; with LOX IMVI melanoma it was 3.49 µM; in the assay with NCI-H460 lung, 18.7 µM; in the assay on MDA-MB-435, 6.1 µM; in the assay with CCRF-CEM leukemia, over 100 µM. Further, the TGI with RXF 393 renal is 4.72 µM; in the assay on DU-145 prostate, over 100 µM; in the assay on 786-0 renal, 94.7 µM; in the assay on MCF7 breast, over 100 µM.

Turning to `CCOC(=O)c1c2c(n(Cc3ccccc3)c1C)-c1ccccc1C(=O)C2=O`, the GI50 in the assay with PC-3 prostate was 6.83 µM; in the assay with NCI/ADR-RES ovarian, 9.42 µM; in the assay on LOX IMVI melanoma, 11.8 µM; in the assay on NCI-H460 lung it was 6.31 µM; in the assay with MDA-MB-435, 29 µM; in the assay on CCRF-CEM leukemia, 3.36 µM. In addition, the GI50 in the assay with RXF 393 renal is 17.1 µM; in the assay on DU-145 prostate, 4.21 µM; in the assay on 786-0 renal, 6.35 µM; in the assay on MCF7 breast it was 5.23 µM. In addition, the TGI in the assay with PC-3 prostate amounted to 19.8 µM; in the assay on NCI/ADR-RES ovarian, 27.4 µM; in the assay on LOX IMVI melanoma, 24.6 µM; in the assay with NCI-H460 lung, 21.5 µM; in the assay with MDA-MB-435, 87 µM; in the assay with CCRF-CEM leukemia, 13.5 µM. Moreover, the TGI with RXF 393 renal worked out at 36.6 µM; in the assay with DU-145 prostate, 12.4 µM; in the assay on 786-0 renal, 19.3 µM; with MCF7 breast it was 20.9 µM.

As to `O=c1c2ccccc2n2n1CC(O)C2` (stereo not given), the GI50 in the assay with PC-3 prostate, with NCI/ADR-RES ovarian, with MDA-MB-435, in the assay on DU-145 prostate and in the assay with MCF7 breast was over 100 µM in each case. Further, the TGI in the assay with PC-3 prostate, with NCI/ADR-RES ovarian, in the assay with LOX IMVI melanoma, with NCI-H460 lung, in the assay on MDA-MB-435 and in the assay on CCRF-CEM leukemia was over 100 µM in each case. In addition, the TGI with RXF 393 renal, with DU-145 prostate, with 786-0 renal and in the assay with MCF7 breast was over 100 µM each time.
